Measurements reported in PubChem BioAssay (NCI).
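GI50 marks 50% less growth. TGI: concentration producing complete growth inhibition.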

Columns and labels:
Experiment in all cases: NCI anticancer screen, dose series, 384-well format
OVCAR-8 ovarian = system: OVCAR-8 ovarian
MDA-MB-435 melanoma = system: MDA-MB-435 melanoma
MALME-3M melanoma = system: MALME-3M melanoma
MDA-MB-468 breast = system: MDA-MB-468 breast
HCC-2998 colon = system: HCC-2998 colon
UACC-257 melanoma = system: UACC-257 melanoma
MOLT-4 leukemia = system: MOLT-4 leukemia
HOP-92 NSCLC = system: HOP-92 NSCLC
SF-268 CNS = system: SF-268 CNS
HL-60(TB) leukemia = system: HL-60(TB) leukemia
SK-OV-3 ovarian = system: SK-OV-3 ovarian
SK-MEL-28 melanoma = system: SK-MEL-28 melanoma
BT-549 breast = system: BT-549 breast
K-562 leukemia = system: K-562 leukemia
NCI-H226 lung = system: NCI-H226 lung
A498 renal = system: A498 renal
MCF7 breast = system: MCF7 breast
HS 578T breast = system: HS 578T breast
U251 glioblastoma = system: U251 glioblastoma
786-0 renal = system: 786-0 renal
SR leukemia = system: SR leukemia
M14 melanoma = system: M14 melanoma
HCT-15 colon = system: HCT-15 colon
SN12C renal = system: SN12C renal
MDA-MB-231 breast = system: MDA-MB-231 breast
SF-539 CNS = system: SF-539 CNS
ACHN renal = system: ACHN renal
NCI/ADR-RES ovarian = system: NCI/ADR-RES ovarian
LOX IMVI melanoma = system: LOX IMVI melanoma
RXF 393 renal = system: RXF 393 renal
TK-10 renal = system: TK-10 renal
EKVX NSCLC = system: EKVX NSCLC
OVCAR-5 ovarian = system: OVCAR-5 ovarian
SF-295 CNS = system: SF-295 CNS
OVCAR-4 ovarian = system: OVCAR-4 ovarian
KM12 colon = system: KM12 colon
SW-620 colon = system: SW-620 colon
NCI-H322M lung = system: NCI-H322M lung
T-47D breast = system: T-47D breast
RPMI-8226 leukemia = system: RPMI-8226 leukemia
NCI-H23 lung = system: NCI-H23 lung
OVCAR-3 ovarian = system: OVCAR-3 ovarian
SNB-19 CNS = system: SNB-19 CNS
HT29 colon = system: HT29 colon
NCI-H460 NSCLC = system: NCI-H460 NSCLC
A549 NSCLC = system: A549 NSCLC
UACC-62 melanoma = system: UACC-62 melanoma
COLO 205 colon = system: COLO 205 colon
CCRF-CEM leukemia = system: CCRF-CEM leukemia
PC-3 prostate = system: PC-3 prostate
DU-145 prostate = system: DU-145 prostate
SK-MEL-5 melanoma = system: SK-MEL-5 melanoma
UO-31 renal = system: UO-31 renal
SNB-75 CNS = system: SNB-75 CNS
CAKI-1 renal = system: CAKI-1 renal
HCT-116 colon = system: HCT-116 colon

O=C1Nc2c(C(F)(F)F)cccc2[C@@]1(c1ccc(O)cc1)c1ccc(OC(F)(F)F)cc1
GI50 (OVCAR-8 ovarian): < 10 nM
TGI (OVCAR-8 ovarian): < 10 nM
GI50 (MDA-MB-435 melanoma): 8620 nM
TGI (MDA-MB-435 melanoma): 20900 nM
GI50 (MALME-3M melanoma): 8370 nM
TGI (MALME-3M melanoma): 20800 nM
GI50 (MDA-MB-468 breast): < 10 nM
TGI (MDA-MB-468 breast): < 10 nM
GI50 (HCC-2998 colon): < 10 nM
TGI (HCC-2998 colon): 41.5 nM
GI50 (UACC-257 melanoma): 12000 nM
TGI (UACC-257 melanoma): 24400 nM
GI50 (MOLT-4 leukemia): 10400 nM
TGI (MOLT-4 leukemia): 22200 nM
GI50 (HOP-92 NSCLC): 44.3 nM
TGI (HOP-92 NSCLC): 20600 nM
GI50 (SF-268 CNS): 2010 nM
TGI (SF-268 CNS): 18100 nM
GI50 (HL-60(TB) leukemia): 2140 nM
TGI (HL-60(TB) leukemia): 3780 nM
GI50 (SK-OV-3 ovarian): 58.4 nM
TGI (SK-OV-3 ovarian): 13800 nM
GI50 (SK-MEL-28 melanoma): 12400 nM
TGI (SK-MEL-28 melanoma): 24900 nM
GI50 (BT-549 breast): < 10 nM
TGI (BT-549 breast): < 10 nM
GI50 (K-562 leukemia): 974 nM
TGI (K-562 leukemia): 17700 nM
GI50 (NCI-H226 lung): 10.8 nM
TGI (NCI-H226 lung): 27.6 nM
GI50 (A498 renal): 22 nM
TGI (A498 renal): 61.9 nM
GI50 (MCF7 breast): 12.1 nM
TGI (MCF7 breast): 62.2 nM
GI50 (HS 578T breast): < 10 nM
TGI (HS 578T breast): < 10 nM
GI50 (U251 glioblastoma): 14900 nM
TGI (U251 glioblastoma): 28200 nM
GI50 ([…]-0 renal): 15300 nM
TGI (786-0 renal): 28700 nM
GI50 (SR leukemia): 2040 nM
TGI (SR leukemia): 4150 nM
GI50 (M14 melanoma): 3360 nM
TGI (M14 melanoma): 17200 nM
GI50 (HCT-15 colon): 18.6 nM
TGI (HCT-15 colon): 15200 nM
GI50 (SN12C renal): < 10 nM
TGI (SN12C renal): 21.1 nM
GI50 (MDA-MB-231 breast): 3860 nM
TGI (MDA-MB-231 breast): 18900 nM
GI50 (SF-539 CNS): 1600 nM
TGI (SF-539 CNS): 13700 nM
GI50 (ACHN renal): 20.3 nM
TGI (ACHN renal): 47 nM
GI50 (NCI/ADR-RES ovarian): < 10 nM
TGI (NCI/ADR-RES ovarian): 22.8 nM
GI50 (LOX IMVI melanoma): 11.8 nM
TGI (LOX IMVI melanoma): 26.3 nM
GI50 (RXF 393 renal): < 10 nM
TGI (RXF 393 renal): < 10 nM
GI50 (TK-10 renal): < 10 nM
TGI (TK-10 renal): < 10 nM
GI50 (EKVX NSCLC): 17 nM
TGI (EKVX NSCLC): 55.1 nM
GI50 (OVCAR-5 ovarian): 50.3 nM
TGI (OVCAR-5 ovarian): 20400 nM
GI50 (SF-295 CNS): 21.2 nM
TGI (SF-295 CNS): 75.9 nM
GI50 (OVCAR-4 ovarian): < 10 nM
TGI (OVCAR-4 ovarian): < 10 nM
GI50 (KM12 colon): 14.5 nM
TGI (KM12 colon): 1130 nM
GI50 (SW-620 colon): 7090 nM
TGI (SW-620 colon): 19400 nM
GI50 (NCI-H322M lung): < 10 nM
TGI (NCI-H322M lung): < 10 nM
GI50 (T-47D breast): < 10 nM
TGI (T-47D breast): < 10 nM
GI50 (RPMI-8226 leukemia): 3030 nM
TGI (RPMI-8226 leukemia): 9540 nM
GI50 (NCI-H23 lung): < 10 nM
TGI (NCI-H23 lung): 11.3 nM
GI50 (OVCAR-3 ovarian): < 10 nM
TGI (OVCAR-3 ovarian): 17 nM
GI50 (SNB-19 CNS): 13200 nM
TGI (SNB-19 CNS): 26000 nM
GI50 (HT29 colon): 12900 nM
TGI (HT29 colon): 25700 nM
GI50 (NCI-H460 NSCLC): 13700 nM
TGI (NCI-H460 NSCLC): 27100 nM
GI50 (A549 NSCLC): 34.1 nM
TGI (A549 NSCLC): 148 nM
GI50 (UACC-62 melanoma): 33.1 nM
TGI (UACC-62 melanoma): 5960 nM
GI50 (COLO 205 colon): < 10 nM
TGI (COLO 205 colon): < 10 nM
GI50 (CCRF-CEM leukemia): 12800 nM
TGI (CCRF-CEM leukemia): 25500 nM
GI50 (PC-3 prostate): 12.3 nM
TGI (PC-3 prostate): 36.3 nM
GI50 (DU-145 prostate): 31.3 nM
TGI (DU-145 prostate): 102 nM
GI50 (SK-MEL-5 melanoma): 10900 nM
TGI (SK-MEL-5 melanoma): 22900 nM
GI50 (UO-31 renal): 15.1 nM
TGI (UO-31 renal): 28.8 nM
GI50 (SNB-75 CNS): < 10 nM
TGI (SNB-75 CNS): < 10 nM
GI50 (CAKI-1 renal): 12900 nM
TGI (CAKI-1 renal): 25500 nM
GI50 (HCT-116 colon): 25.2 nM
TGI (HCT-116 colon): 16900 nM
